# Measured values reported in publication PMC9841524, “Structure-Based Rational Design of Small α-Helical Peptides with Broad-Spectrum Activity against Multidrug-Resistant Pathogens” (Journal of Medicinal Chemistry, 2022).
# Where no end group is shown, it is not given here.
# Test system: P. aeruginosa (ATCC 27883)
# Experiment: MIC, standard microtiter dilution (CLSI)
# Format: cell-based, Pseudomonas aeruginosa
# Conditions: broth microdilution (CLSI), CAMHB, 10^6 CFU/mL, 37 °C, 24 h; highest MIC of three independent experiments in triplicate
# Experimental: (§1) Description of the characteristics and growth conditions of various bacterial strains used in the study are provided in the Supporting Information (Table S3). Antibacterial susceptibility testing was carried out using a standard microtiter dilution method recommended by the clinical and laboratory standard institute (CLSI) and measured as a minimum inhibitory concentration (MIC), the lowest peptide concentration that inhibited bacterial growth. Briefly, the overnight grown cultures in the recommended broth for each bacterial strain were diluted in cation-adjusted Mueller Hinton Broth (CAMHB) to give an inoculum of 10^6 colony-forming units (CFU)/mL. A 2-fold serially diluted test peptide solution (100 μL) was added to the microtiter plates. After adding bacterial suspension (100 μL), the plates were incubated at 37 °C for 24 h, and the MICs were determined. The same protocol was used to determine the MICs in the presence of salts and serum except using the media supplemented with various cationic salts (150 mM NaCl, 4.5 mM KCl, 6 mM NH4Cl, 1 mM MgCl2, and 2 mM CaCl2) or 25% FBS. The data was acquired from three independent assays performed in triplicate.
# (§2) The bacterial strains employed in this study were obtained from the American Type Culture Collection (ATCC). Each strain was propagated as recommended by the ATCC, and each strain was stored as a frozen glycerol stock at -80°C. A bacterial colony was grown on the appropriate agar as indicated in Table S1 and was used to inoculate the appropriate broth. The culture was incubated at the appropriate conditions, as mentioned in Table S1. Following the incubation, the culture was diluted to an optical density 625 nm (OD625) of 0.1 in cation adjusted Mueller Hinton Broth (CAMHB), which is equivalent to 1 × 10^8 CFU/mL. The culture was further diluted to 1 × 10^6 CFU/mL, which was used to conduct the MIC determination assay. For the S. pneumoniae strains, CAMHB + 2.5% lysed horse blood was required for the assay. The strains with their […]
# (§3) Table S3. Description of the characteristics and growth conditions of various bacterial strains
row,Substance,"MIC, P. aeruginosa (ATCC 27883) [µg/mL]"
1,RAWRAWWRRA-NH2 [4f],> 100
2,RWLRRWLRWWR-NH2 [5d],50
3,RWWRRAWAR-NH2 [3e],> 100
4,RWWRRWAR-NH2 [2a],> 100
5,WRRWWRR-NH2 [1c],> 100

# Same assay, conditions: value in parentheses (μM); broth microdilution (CLSI), CAMHB, 37 °C, 24 h
row,Substance,"MIC, P. aeruginosa (ATCC 27883) [µM]"
1,RAWRAWWRRA-NH2 [4f],> 70.74
2,RWLRRWLRWWR-NH2 [5d],28.26
3,RWWRRAWAR-NH2 [3e],> 74.48
4,RWWRRWAR-NH2 [2a],> 78.65
5,WRRWWRR-NH2 [1c],> 83.30

# Test system: K. pneumoniae (ATCCBAA-1705)
# Experiment: MIC, standard microtiter dilution (CLSI)
# Format: cell-based, Klebsiella pneumoniae
# Conditions: broth microdilution (CLSI), CAMHB, 10^6 CFU/mL, 37 °C, 24 h; highest MIC of three independent experiments in triplicate
# Experimental: as §1, §2, §3
row,Substance,"MIC, K. pneumoniae (ATCCBAA-1705) [µg/mL]"
1,RAWRAWWRRA-NH2 [4f],> 100
2,RWLRRWLRWWR-NH2 [5d],50
3,RWWRRAWAR-NH2 [3e],> 100
4,RWWRRWAR-NH2 [2a],> 100
5,WRRWWRR-NH2 [1c],> 100

# Same assay, conditions: value in parentheses (μM); broth microdilution (CLSI), CAMHB, 37 °C, 24 h
row,Substance,"MIC, K. pneumoniae (ATCCBAA-1705) [µM]"
1,RAWRAWWRRA-NH2 [4f],> 70.74
2,RWLRRWLRWWR-NH2 [5d],28.26
3,RWWRRAWAR-NH2 [3e],> 74.48
4,RWWRRWAR-NH2 [2a],> 78.65
5,WRRWWRR-NH2 [1c],> 83.30

# Test system: S. aureus (ATCC 29213)
# Experiment: MIC, standard microtiter dilution (CLSI)
# Format: cell-based
# Conditions: broth microdilution (CLSI), CAMHB, 10^6 CFU/mL, 37 °C, 24 h; highest MIC of three independent experiments in triplicate
# Experimental: as §1, §2, §3
row,Substance,"MIC, S. aureus (ATCC 29213) [µg/mL]"
1,RAWRAWWRRA-NH2 [4f],> 100
2,RWLRRWLRWWR-NH2 [5d],25
3,RWWRRAWAR-NH2 [3e],> 100
4,RWWRRWAR-NH2 [2a],> 100
5,WRRWWRR-NH2 [1c],100

# Same assay, conditions: value in parentheses (μM); broth microdilution (CLSI), CAMHB, 37 °C, 24 h
row,Substance,"MIC, S. aureus (ATCC 29213) [µM]"
1,RAWRAWWRRA-NH2 [4f],> 70.74
2,RWLRRWLRWWR-NH2 [5d],14.13
3,RWWRRAWAR-NH2 [3e],> 74.48
4,RWWRRWAR-NH2 [2a],> 78.65
5,WRRWWRR-NH2 [1c],83.30

# Test system: MRSA (ATCC BAA-1556)
# Experiment: not given
# Conditions: broth microdilution (CLSI), CAMHB, 10^6 CFU/mL, 37 °C, 24 h; highest MIC of three independent experiments in triplicate
# Experimental: as §1, §2, §3
row,Substance,"MIC, MRSA (ATCC BAA-1556) [µg/mL]"
1,RAWRAWWRRA-NH2 [4f],> 100
2,RWLRRWLRWWR-NH2 [5d],25
3,RWWRRAWAR-NH2 [3e],> 100
4,RWWRRWAR-NH2 [2a],> 100
5,WRRWWRR-NH2 [1c],100

# Same assay, conditions: value in parentheses (μM); broth microdilution (CLSI), CAMHB, 37 °C, 24 h
row,Substance,"MIC, MRSA (ATCC BAA-1556) [µM]"
1,RAWRAWWRRA-NH2 [4f],> 70.74
2,RWLRRWLRWWR-NH2 [5d],14.13
3,RWWRRAWAR-NH2 [3e],> 74.48
4,RWWRRWAR-NH2 [2a],> 78.65
5,WRRWWRR-NH2 [1c],83.30

# Test system: E. coli (ATCC 25922)
# Experiment: not given
# Conditions: broth microdilution (CLSI), CAMHB, 10^6 CFU/mL, 37 °C, 24 h; highest MIC of three independent experiments in triplicate
# Experimental: as §1, §2, §3
row,Substance,"MIC, E. coli (ATCC 25922) [µg/mL]"
1,RAWRAWWRRA-NH2 [4f],> 100
2,RWLRRWLRWWR-NH2 [5d],50
3,RWWRRAWAR-NH2 [3e],> 100
4,RWWRRWAR-NH2 [2a],> 100
5,WRRWWRR-NH2 [1c],> 100

# Same assay, conditions: value in parentheses (μM); broth microdilution (CLSI), CAMHB, 37 °C, 24 h
row,Substance,"MIC, E. coli (ATCC 25922) [µM]"
1,RAWRAWWRRA-NH2 [4f],> 70.74
2,RWLRRWLRWWR-NH2 [5d],28.26
3,RWWRRAWAR-NH2 [3e],> 74.48
4,RWWRRWAR-NH2 [2a],> 78.65
5,WRRWWRR-NH2 [1c],> 83.30

# Test system: not listed separately
# Experiment: CD spectroscopy, helicity;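 as to % of helicity induced by Liposomes: share of the total helicity with liposomes gained over the same peptide in PBS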;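 as to % of helicity induced by TFE: share of the total helicity in TFE gained over the same peptide in PBS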
# Format: physicochemical
# Parameters: key to Δ[θ]222 induced by TFE / Δ[θ]222 induced by Liposomes: mean residue molar ellipticity, mdeg cm2/(dmol × res)
# Conditions: CD at 222 nm, 25 °C, aqueous buffer containing 50% TFE
# Experimental: The CD spectra of peptides were recorded using a Jasco J-1500 CD spectrophotometer (Jasco, Easton, MD) at 25 °C with a 1 mm path length cell. Wavelengths from 190 to 260 nm were scanned with 1.0 nm step resolution, 100 nm/min speed, 0.4 s response time, and 1 nm bandwidth. CD spectra of the peptides were collected and averaged over three scans in 10 mM sodium phosphate buffer (pH 7.2), helix-inducing solvent 50% TFE (v/v), and bacterial mimic liposomes (75 μM lipid). Spectra were corrected by subtracting a baseline spectrum containing only buffer or 50% TFE or liposomes. The mean residue molar ellipticity was calculated using the formula [drawing 3] where Ab222 is the absorbance observed at 222 nm, MRW is the mean residue molecular weight, C is the concentration in mg/mL, and L is the path length.
# Table S1. RP-HPLC retention times and CD spectroscopy analysis of the selected peptides Peptide tR (min)a [θ]222b Δ[θ]222 induced by % of helicity inducedc by PBS TFE Liposomes TFE Liposomes TFE Liposomes […]
# atR (min) denotes the retention time at 25°C by RP-HPLC. bThe mean residue molar ellipticity [θ] 222 (mdeg cm2/(dmol × res)) at 222 nm was measured at 25 °C in phosphate buffer saline (PBS, pH 7.0), in aqueous buﬀer containing 50% TFE (TFE), or in presence of bacterial membrane mimicking liposomes (peptide:lipid […]
# c% helix induced is the increase in the molar ellipticity at 222 nm (in percentage) of a peptide in the presence of TFE or liposomes.
row,Substance,"[θ]222 mean residue molar ellipticity, TFE"
1,RAWRAWWRRA-NH2 [4f],-7441 mdeg cm2/(dmol × res)
2,RWLRRWLRWWR-NH2 [5d],-10148 mdeg cm2/(dmol × res)
3,RWWRRAWAR-NH2 [3e],-8008 mdeg cm2/(dmol × res)
4,RWWRRWAR-NH2 [2a],-6217 mdeg cm2/(dmol × res)
5,WRRWWRR-NH2 [1c],-4646 mdeg cm2/(dmol × res)

# Same assay, conditions: CD at 222 nm, 25 °C, bacterial membrane mimicking liposomes, peptide:lipid molar ratio 1:1.05
row,Substance,"[θ]222 mean residue molar ellipticity, Liposomes"
1,RAWRAWWRRA-NH2 [4f],-4470 mdeg cm2/(dmol × res)
2,RWLRRWLRWWR-NH2 [5d],-5800 mdeg cm2/(dmol × res)
3,RWWRRAWAR-NH2 [3e],-4987 mdeg cm2/(dmol × res)
4,RWWRRWAR-NH2 [2a],-4556 mdeg cm2/(dmol × res)
5,WRRWWRR-NH2 [1c],-3092 mdeg cm2/(dmol × res)

# Same assay, conditions: CD at 222 nm, 25 °C, phosphate buffer saline pH 7.0
row,Substance,"[θ]222 mean residue molar ellipticity, PBS"
1,RAWRAWWRRA-NH2 [4f],-3665 mdeg cm2/(dmol × res)
2,RWLRRWLRWWR-NH2 [5d],-4099 mdeg cm2/(dmol × res)
3,RWWRRAWAR-NH2 [3e],-4113 mdeg cm2/(dmol × res)
4,RWWRRWAR-NH2 [2a],-4051 mdeg cm2/(dmol × res)
5,WRRWWRR-NH2 [1c],-2638 mdeg cm2/(dmol × res)

# Same assay, conditions: difference to PBS; 50% TFE
row,Substance,Δ[θ]222 induced by TFE
1,RAWRAWWRRA-NH2 [4f],-3775
2,RWLRRWLRWWR-NH2 [5d],-6048
3,RWWRRAWAR-NH2 [3e],-3895
4,RWWRRWAR-NH2 [2a],-2165
5,WRRWWRR-NH2 [1c],-2008

# Same assay, conditions: difference to PBS; bacterial membrane mimicking liposomes
row,Substance,Δ[θ]222 induced by Liposomes
1,RAWRAWWRRA-NH2 [4f],-805
2,RWLRRWLRWWR-NH2 [5d],-1700
3,RWWRRAWAR-NH2 [3e],-874
4,RWWRRWAR-NH2 [2a],-505
5,WRRWWRR-NH2 [1c],-454

# Same assay, conditions: increase in molar ellipticity at 222 nm in the presence of 50% TFE
row,Substance,% of helicity induced by TFE [%]
1,RAWRAWWRRA-NH2 [4f],50.73
2,RWLRRWLRWWR-NH2 [5d],59.60
3,RWWRRAWAR-NH2 [3e],48.63
4,RWWRRWAR-NH2 [2a],34.83
5,WRRWWRR-NH2 [1c],43.22

# Same assay, conditions: increase in molar ellipticity at 222 nm in the presence of liposomes
row,Substance,% of helicity induced by Liposomes [%]
1,RAWRAWWRRA-NH2 [4f],18.01
2,RWLRRWLRWWR-NH2 [5d],29.31
3,RWWRRAWAR-NH2 [3e],17.53
4,RWWRRWAR-NH2 [2a],11.08
5,WRRWWRR-NH2 [1c],14.68

# Test system: human red blood cells (hRBCs)
# Experiment: Hemolytic assay
# Format: cell-based
# Conditions: hRBC suspension 4% in PBS, 2 h, 37 °C, hemoglobin release at 567 nm; 1% Triton X-100 = 100%
# Experimental: The hemolytic activity of all peptides (1a–8d) was determined using hRBC. The assay was conducted by adding 75 μL of 2-fold serially diluted peptides to 75 μL of hRBC suspension (4% in PBS). The plates were incubated for 2 h at 37 °C without agitation. In order to determine the hemolysis at each tested concentration of peptides, the plate was centrifuged, and 100 μL of the supernatant was transferred to another 96-well plate to determine hemoglobin release spectrophotometrically at 567 nm. Percent hemolysis was calculated by the following formula [drawing 1] where A represents the absorbance of the peptide sample at 567 nm and A0 and At represent zero percent and 100% hemolysis determined in phosphate buffer saline and 1% Triton X-100, respectively.
row,Substance,HC50 (concentration at which 50% hemolysis was observed) [µg/mL]
1,RAWRAWWRRA-NH2 [4f],> 500
2,RWLRRWLRWWR-NH2 [5d],130
3,RWWRRAWAR-NH2 [3e],> 500
4,RWWRRWAR-NH2 [2a],> 500
5,WRRWWRR-NH2 [1c],> 500

# Same assay, conditions: value in parentheses (μM); hRBC 4% in PBS, 2 h, 37 °C, 567 nm
row,Substance,HC50 (concentration at which 50% hemolysis was observed) [µM]
1,RAWRAWWRRA-NH2 [4f],> 353.69
2,RWLRRWLRWWR-NH2 [5d],73.48
3,RWWRRAWAR-NH2 [3e],> 372.42
4,RWWRRWAR-NH2 [2a],> 393.23
5,WRRWWRR-NH2 [1c],> 416.52
